The values that follow come from patent US9359378B2, “Substituted oxazolo[3,4-a]pyrazines as pharmaceutcals” (BIOLAB SANUS FARMACÊUTICA LTDA., priority 2014, dated 2016).

One test addresses T1, PDE8A1 (Homo sapiens, UniProt O60658).
T1 construct: host or cells: Sf9
Nature of the test: PDE8A1 enzyme inhibition (HTRF, cAMP substrate). In kind it is biochemical. As to conditions: human recombinant enzyme (Sf9); FIGS. 14 and 15; test concentration not given. An excerpt: (§1) The effects of the BL-230 and BL-236 compounds on the activity of the human enzymes PDE2A1, PDE3A, PDE4A1A, PDE4B1, PDE7A, PDE8A1, and PDE10A2 and PDE11A4 were quantified by measuring the production of adenosine 5′-monophosphate (5′AMP) from cyclic adenosine monophosphate (cAMP), with human recombinant enzyme expressed in Sf9 cells and the detection method was by using HTRF®.
(§2) The test compound, the reference compound or water (control) were mixed with the enzyme (the enzymes and their amounts used are described in Table 1) in a buffer containing 44.4 mM Tris-HCl, 5.28 mM MgCl2, 2.64 mM DTT and 0.044% Tween® 20 (pH 7.8). Then, the reaction was initiated by the addition of 40 nM of cAMP substrate and the mixture was incubated for 30 minutes at room temperature. For basal control measurements, the enzyme was omitted from the reaction mixture. The fluorescence acceptor (Dye2 labeled cAMP) and fluorescence donor (anti-cAMP antibody labeled with europium cryptate) were added in the presence of 1 mM IBMX. After 60 minutes, the fluorescence corresponding to the amount of transfer residual cAMP was measured at λex=337 nm, λem=620 nm and λem=665 nm using a microplate reader (RubyStar, BMG). The enzyme activity was determined by the signal division measured at 665 nm, by the measured signal at 620 nm (right). The results were expressed as a inhibition percentage of the control enzyme activity. […]

Another test addresses T2, PDE10A2 (Homo sapiens, UniProt Q9Y233).
T2 construct: host or cells: Sf9
Nature of the test: PDE10A2 enzyme inhibition (HTRF, cAMP substrate). In kind it is biochemical. To be noted: human recombinant enzyme (Sf9); FIG. 14; test concentration not given.
From the text: as §1, §2

T1 sequence (O60658 whole entry): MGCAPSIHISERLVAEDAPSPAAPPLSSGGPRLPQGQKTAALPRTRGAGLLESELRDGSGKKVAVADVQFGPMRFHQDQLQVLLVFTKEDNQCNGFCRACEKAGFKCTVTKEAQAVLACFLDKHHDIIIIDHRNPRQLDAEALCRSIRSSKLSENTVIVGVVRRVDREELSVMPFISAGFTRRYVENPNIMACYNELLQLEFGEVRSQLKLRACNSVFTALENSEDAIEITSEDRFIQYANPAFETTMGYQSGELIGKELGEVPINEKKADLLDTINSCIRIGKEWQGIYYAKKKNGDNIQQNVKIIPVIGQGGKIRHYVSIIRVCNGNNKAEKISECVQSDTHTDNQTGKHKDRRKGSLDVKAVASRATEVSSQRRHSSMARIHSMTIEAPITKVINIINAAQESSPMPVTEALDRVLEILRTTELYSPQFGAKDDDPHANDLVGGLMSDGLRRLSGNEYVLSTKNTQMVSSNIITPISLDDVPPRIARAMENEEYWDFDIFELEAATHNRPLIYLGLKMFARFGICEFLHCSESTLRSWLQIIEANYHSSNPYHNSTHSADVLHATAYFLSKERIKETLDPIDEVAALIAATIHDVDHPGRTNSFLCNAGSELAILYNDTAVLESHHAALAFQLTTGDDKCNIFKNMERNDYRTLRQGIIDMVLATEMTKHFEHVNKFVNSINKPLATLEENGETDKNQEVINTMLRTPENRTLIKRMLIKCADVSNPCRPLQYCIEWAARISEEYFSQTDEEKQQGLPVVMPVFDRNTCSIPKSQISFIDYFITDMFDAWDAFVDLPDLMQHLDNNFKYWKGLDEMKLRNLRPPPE
T2 sequence (Q9Y233 267-1055): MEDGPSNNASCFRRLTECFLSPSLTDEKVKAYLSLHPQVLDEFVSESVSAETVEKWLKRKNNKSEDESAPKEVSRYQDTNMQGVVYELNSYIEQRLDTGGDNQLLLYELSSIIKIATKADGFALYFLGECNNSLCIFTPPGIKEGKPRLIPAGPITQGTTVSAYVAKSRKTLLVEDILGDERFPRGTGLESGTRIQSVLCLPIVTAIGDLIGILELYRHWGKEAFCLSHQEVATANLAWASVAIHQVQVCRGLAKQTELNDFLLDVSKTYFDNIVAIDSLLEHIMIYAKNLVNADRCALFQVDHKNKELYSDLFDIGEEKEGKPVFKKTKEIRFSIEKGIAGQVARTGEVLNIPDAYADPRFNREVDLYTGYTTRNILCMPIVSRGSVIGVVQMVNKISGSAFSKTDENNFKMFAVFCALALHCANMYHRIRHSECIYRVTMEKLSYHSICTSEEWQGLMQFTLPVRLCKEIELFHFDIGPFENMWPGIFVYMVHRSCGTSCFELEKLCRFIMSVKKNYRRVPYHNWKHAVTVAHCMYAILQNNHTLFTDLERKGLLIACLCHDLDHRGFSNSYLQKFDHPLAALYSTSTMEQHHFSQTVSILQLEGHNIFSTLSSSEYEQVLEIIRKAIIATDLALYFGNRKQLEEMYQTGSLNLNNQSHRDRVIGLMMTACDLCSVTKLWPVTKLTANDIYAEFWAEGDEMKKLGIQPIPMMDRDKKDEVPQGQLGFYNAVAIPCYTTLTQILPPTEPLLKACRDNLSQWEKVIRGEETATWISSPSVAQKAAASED

With `O=C1C2=C(c3c[nH]c4ccccc34)OC(c3ccc4c(c3)OCO4)N2C(=O)CN1CCO` (stereo not drawn) [BL-230, 3-(benzo[d][1,3]dioxol-5yl)-7-(2-hydroxyethyl)-1-(1H-indol-3-yl)-6,7-dihydro-3H-oxazolo[3,4-a]pyrazine-5,8-dione], the “inhibition of PDE8A1 enzyme activity” value at PDE8A1 was “did not inhibit”. Besides, the “inhibition of PDE10A2 enzyme activity” value on PDE10A2 came to 35%.
As to `C[C@@H](CO)N1CC(=O)N2C(=C(c3c[nH]c4ccccc34)OC2c2ccc3c(c2)OCO3)C1=O` (stereo partly drawn) [BL-236, 3-(benzo[d][1,3]dioxol-5yl)-7-((S)1-hydroxypropan-2yl)-1-(1H-indol-3-yl)-6,7-dihydro-3H-oxazolo[3,4-a]pyrazine-5,8-dione], the “inhibition of PDE8A1 enzyme activity” value at PDE8A1 is recorded as “did not inhibit”.
